Experimental data published in US11987648B2, “Cyclohexapeptides as selective somatostatin SST5 receptor agonists” (Heptares Therapeutics Limited, priority 2018, dated 2024).
*1 amine or outer side, *2 acyl side, *3 side chain or, on linkers, in order; H or OH if unused. Where a SMILES comes first, the peptide text is derived from it. Side-chain parts run from the residue outwards. [ ]: non-standard residue; d: D form. The star is where a group is joined. Ala(piperidin-4-yl) = O=C([C@H](CC1CCN([*:3])CC1)N[*:1])[*:2]; X2 = O=C([C@@H]1C[C@@H](Oc2ccncc2)CN1[*:1])[*:2]; dTrp(5-Me) = Cc1ccc2[nH]cc(C[C@@H](N)C(=O)O)c2c1; Ala(piperazin-1-yl) = N[C@@H](CN1CCNCC1)C(=O)O; Phe(3-Br) = N[C@@H](Cc1cccc(Br)c1)C(=O)O; Phe(3-OMe) = COc1cccc(C[C@H](N)C(=O)O)c1; Phe(4-Cl) = N[C@@H](Cc1ccc(Cl)cc1)C(=O)O; Ethylenediamine = C(CN[*:2])N[*:1]; d(hPhe) = N[C@H](CCc1ccccc1)C(=O)O; Hyp = O=C(O)[C@@H]1C[C@@H](O)CN1; hPhe = N[C@@H](CCc1ccccc1)C(=O)O; 3Pal = N[C@@H](Cc1cccnc1)C(=O)O; Tic = O=C(O)[C@@H]1Cc2ccccc2CN1; Phg = N[C@H](C(=O)O)c1ccccc1; CO = O=C([*:1])[*:2]; Bn = c1ccc(C*)cc1

Columns and labels:
SST5 = SST5 (Homo sapiens, UniProt P35346); assay: Hit Hunter cAMP XS+ assay, SST5 activation via Gi (reduction of forskolin-stimulated cAMP); format: cell-based; details: for Emax: read-out: SST5 (EMax); for EC50: reduction of forskolin-stimulated cAMP, 4-parameter logistic fit, read-out: SST5 pEC50 (converted); for SST5/2 Selectivity: selectivity for SST5 over SST2
Protocol: (§1) A Hit Hunter® cAMP XS+ assay was used to monitor activation of the SST2 and SST5 via the Gi G protein. Cells were pre-stimulated with forskolin to elicit a cAMP response and the potency and efficacy of somatostatin agonists to reduce cAMP was measured. Briefly cells (10,000 cells/well) were incubated (37° C.; 30 min) with compound ([…]) in media (2:1 HBSS/11 mM Hepes: cAMP XS+Ab reagent) in the presence of EC80 forskolin ([…] and 15 μM SST5). Signal was detected through incubation with 20 μL cAMP XS+ED/CL lysis cocktail ([…]; RT) followed by incubation with […] cAMP XS+EA reagent (180 min; RT). Microplates were read with a PerkinElmer Envision™ instrument for chemiluminescent signal detection.

SST2 = SST2 (Homo sapiens, UniProt P30874); assay: Hit Hunter cAMP XS+ assay, SST2 activation via Gi (reduction of forskolin-stimulated cAMP); format: cell-based; details: for Emax: read-out: SST2 (EMax); for EC50: reduction of forskolin-stimulated cAMP, 4-parameter logistic fit, read-out: SST2 pEC50 (converted)
Protocol: as §1

Chain of SST2 (P30874 whole entry): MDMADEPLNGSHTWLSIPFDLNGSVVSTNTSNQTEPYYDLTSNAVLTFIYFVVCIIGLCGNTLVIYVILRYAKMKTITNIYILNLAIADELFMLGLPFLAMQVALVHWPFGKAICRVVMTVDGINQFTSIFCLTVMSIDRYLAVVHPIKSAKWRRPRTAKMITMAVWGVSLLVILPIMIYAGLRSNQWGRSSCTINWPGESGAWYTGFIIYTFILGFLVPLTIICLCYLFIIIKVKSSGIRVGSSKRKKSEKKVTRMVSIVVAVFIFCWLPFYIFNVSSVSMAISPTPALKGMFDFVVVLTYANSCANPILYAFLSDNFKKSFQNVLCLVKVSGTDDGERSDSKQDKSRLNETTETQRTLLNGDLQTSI
Chain of SST5 (P35346 whole entry): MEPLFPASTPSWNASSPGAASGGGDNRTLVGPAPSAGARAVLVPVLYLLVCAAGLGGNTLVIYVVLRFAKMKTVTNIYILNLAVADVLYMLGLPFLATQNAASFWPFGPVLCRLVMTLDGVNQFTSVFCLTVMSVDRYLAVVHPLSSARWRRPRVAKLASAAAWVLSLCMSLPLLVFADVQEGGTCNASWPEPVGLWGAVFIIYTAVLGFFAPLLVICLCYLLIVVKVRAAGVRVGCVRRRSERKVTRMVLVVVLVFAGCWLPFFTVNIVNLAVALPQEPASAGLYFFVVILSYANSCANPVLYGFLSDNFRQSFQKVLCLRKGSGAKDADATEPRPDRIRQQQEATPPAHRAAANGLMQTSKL

Row | Compound | Emax (SST5) [%] | EC50 (SST5) [nM] | SST5/2 Selectivity (SST5) | Emax (SST2) [%] | EC50 (SST2) [nM]
1 | NCCNC(=O)O[C@@H]1C[C@H]2C(=O)N[C@@H](c3ccccc3)C(=O)N[C@H](Cc3c[nH]c4ccccc34)C(=O)N[C@@H](CC3CCNCC3)C(=O)N[C@@H](Cc3ccc(OCc4ccccc4)cc3)C(=O)N[C@@H](Cc3ccc(Cl)cc3)C(=O)N2C1 [Example 8] (cyclo([Hyp]([CO-Ethylenediamine])[Phg][dW][Ala(piperidin-4-yl)]Y(Bn)[Phe(4-Cl)])) | 102 | 1.26 | 22.7 | 101 | 31.6
2 | COc1ccc(C[C@@H]2NC(=O)[C@H](Cc3ccc(OCc4ccccc4)cc3)NC(=O)[C@H](CC3CCNCC3)NC(=O)[C@@H](Cc3c[nH]c4ccccc34)NC(=O)[C@H](c3ccccc3)NC(=O)[C@@H]3C[C@@H](OC(=O)NCCN)CN3C2=O)cc1 [Example 9] (cyclo([Hyp]([CO-Ethylenediamine])[Phg][dW][Ala(piperidin-4-yl)]Y(Bn)Y(Me))) | 106 | 2.51 | 23.3 | 102 | 50.1
3 | NCCNC(=O)O[C@@H]1C[C@H]2C(=O)N[C@@H](c3ccccc3)C(=O)N[C@H](Cc3c[nH]c4ccccc34)C(=O)N[C@@H](CC3CCNCC3)C(=O)N[C@@H](Cc3ccc(OCc4ccccc4)cc3)C(=O)N[C@@H](Cc3cccc(Br)c3)C(=O)N2C1 [Example 10] (cyclo([Hyp]([CO-Ethylenediamine])[Phg][dW][Ala(piperidin-4-yl)]Y(Bn)[Phe(3-Br)])) | 98 | 0.501 | 38.9 | 101 | 20
4 | NCCNC(=O)O[C@@H]1C[C@H]2C(=O)N[C@@H](c3ccccc3)C(=O)N[C@H](Cc3c[nH]c4ccccc34)C(=O)N[C@@H](CC3CCNCC3)C(=O)N[C@@H](Cc3ccc(OCc4ccccc4)cc3)C(=O)N[C@@H](Cc3cccnc3)C(=O)N2C1 [Example 11] (cyclo([3Pal][Hyp]([CO-Ethylenediamine])[Phg][dW][Ala(piperidin-4-yl)]Y(Bn))) | 99.4 | 3.98 | 48.2 | 98 | 200
5 | COc1cccc(C[C@@H]2NC(=O)[C@H](Cc3ccc(OCc4ccccc4)cc3)NC(=O)[C@H](CC3CCNCC3)NC(=O)[C@@H](Cc3c[nH]c4ccccc34)NC(=O)[C@H](c3ccccc3)NC(=O)[C@@H]3C[C@@H](OC(=O)NCCN)CN3C2=O)c1 [Example 12] (cyclo([Hyp]([CO-Ethylenediamine])[Phg][dW][Ala(piperidin-4-yl)]Y(Bn)[Phe(3-OMe)])) | 98.1 | 0.794 | 26.1 | 97.6 | 20
6 | Cc1ccc2[nH]cc(C[C@H]3NC(=O)[C@H](c4ccccc4)NC(=O)[C@@H]4C[C@@H](OC(=O)NCCN)CN4C(=O)[C@H](Cc4ccccc4)NC(=O)[C@H](Cc4ccc(OCc5ccccc5)cc4)NC(=O)[C@H](CC4CCNCC4)NC3=O)c2c1 [Example 13] (cyclo(F[Hyp]([CO-Ethylenediamine])[Phg][dTrp(5-Me)][Ala(piperidin-4-yl)]Y(Bn))) | 98.7 | 2.51 | 87.2 | 97.6 | 200
7 | NCCNC(=O)O[C@@H]1C[C@H]2C(=O)N[C@@H](CCc3ccccc3)C(=O)N[C@H](Cc3c[nH]c4ccccc34)C(=O)N[C@@H](CN3CCNCC3)C(=O)N[C@@H](Cc3ccc(OCc4ccccc4)cc3)C(=O)N[C@@H](Cc3cccnc3)C(=O)N2C1 [Example 14] (cyclo([3Pal][Hyp]([CO-Ethylenediamine])[hPhe][dW][Ala(piperazin-1-yl)]Y(Bn))) | 96.7 | 0.0794 | 1876.8 | 99.6 | 158
8 | NCCNC(=O)O[C@@H]1C[C@H]2C(=O)N[C@H](CCc3ccccc3)C(=O)N[C@H](Cc3c[nH]c4ccccc34)C(=O)N[C@@H](CC3CCNCC3)C(=O)N[C@@H](Cc3ccc(OCc4ccccc4)cc3)C(=O)N[C@@H](Cc3cccnc3)C(=O)N2C1 [Example 15] (cyclo([3Pal][Hyp]([CO-Ethylenediamine])[d(hPhe)][dW][Ala(piperidin-4-yl)]Y(Bn))) | 101 | 20 | 531.3 | 55.5 | > 10000
9 | NCCNC(=O)O[C@@H]1C[C@H]2C(=O)N[C@H](CCc3ccccc3)C(=O)N[C@H](Cc3c[nH]c4ccccc34)C(=O)N[C@@H](CN3CCNCC3)C(=O)N[C@@H](Cc3ccc(OCc4ccccc4)cc3)C(=O)N[C@@H](Cc3cccnc3)C(=O)N2C1 [Example 16] (cyclo([3Pal][Hyp]([CO-Ethylenediamine])[d(hPhe)][dW][Ala(piperazin-1-yl)]Y(Bn))) | 100 | 3.98 | 2729.5 | 79.5 | > 10000
10 | NCCNC(=O)O[C@@H]1C[C@H]2C(=O)N[C@@H](CCc3ccccc3)C(=O)N[C@H](Cc3c[nH]c4ccccc34)C(=O)N[C@@H](CC3CCNCC3)C(=O)N[C@@H](Cc3ccc(OCc4ccccc4)cc3)C(=O)N3Cc4ccccc4C[C@H]3C(=O)N2C1 [Example 17] (cyclo([Hyp]([CO-Ethylenediamine])[hPhe][dW][Ala(piperidin-4-yl)]Y(Bn)[Tic])) | 104 | 0.501 | 789.4 | 97.3 | 398
11 | NCCNC(=O)O[C@@H]1C[C@H]2C(=O)N[C@@H](CCc3ccccc3)C(=O)N[C@@H](Cc3c[nH]c4ccccc34)C(=O)N[C@@H](CC3CCNCC3)C(=O)N[C@@H](Cc3ccc(OCc4ccccc4)cc3)C(=O)N3Cc4ccccc4C[C@H]3C(=O)N2C1 [Example 19] (cyclo([Hyp]([CO-Ethylenediamine])[hPhe]W[Ala(piperidin-4-yl)]Y(Bn)[Tic])) | 99.8 | 20 | 5.5 | 75.5 | 100
12 | O=C1N[C@@H](Cc2cccnc2)C(=O)N2C[C@H](Oc3ccncc3)C[C@H]2C(=O)N[C@H](CCc2ccccc2)C(=O)N[C@H](Cc2c[nH]c3ccccc23)C(=O)N[C@@H](CC2CCNCC2)C(=O)N[C@H]1Cc1ccc(OCc2ccccc2)cc1 [Example 20] (cyclo([3Pal][X2][d(hPhe)][dW][Ala(piperidin-4-yl)]Y(Bn))) | 99.6 | 6.31 | 418.4 | 98 | 3160
13 | O=C1N[C@@H](Cc2cccnc2)C(=O)N2C[C@H](Oc3ccncc3)C[C@H]2C(=O)N[C@@H](CCc2ccccc2)C(=O)N[C@H](Cc2c[nH]c3ccccc23)C(=O)N[C@@H](CC2CCNCC2)C(=O)N[C@H]1Cc1ccc(OCc2ccccc2)cc1 [Example 22] (cyclo([3Pal][X2][hPhe][dW][Ala(piperidin-4-yl)]Y(Bn))) | 102 | 0.501 | 142.6 | 100 | 79.4
14 | O=C1N[C@@H](Cc2ccc(OCc3ccccc3)cc2)C(=O)N[C@@H](Cc2cccnc2)C(=O)N2C[C@H](Oc3ccncc3)C[C@H]2C(=O)N[C@@H](CCc2ccccc2)C(=O)N[C@@H](Cc2c[nH]c3ccccc23)C(=O)N[C@H]1CC1CCNCC1 [Example 23] (cyclo([3Pal][X2][hPhe]W[Ala(piperidin-4-yl)]Y(Bn))) | 101 | 3.98 | 148.7 | 96.6 | 631
